Experiments:
[1] = acute toxicity, LD50 p.o. mice; conditions: mouse, in vivo, po
[2] = system: carrageenin induced edema; test: carrageenin-induced edema test, oral administration; assay type: in vivo, rats; conditions: mice
Description: The compounds of the invention have antiinflammatory activity. […] The compounds are orally administered at dosages varying from 10 to 200 mg/kg. and the observed percent decreases of the induced edema are between about 30 and about 65. The acute toxicity of these compounds is ordinarily very low, almost always being higher than 1000 mg/kg. Moreover the compounds of this invention are much less ulcerogenic than other known and wisely used anti-inflammatories, such as, for example, phenylbutazone.

Structure (SMILES)	LD50 [1]	Percent inhibition of carrageenin induced edema ([2]; dose 50 mg/kg p.o.)	Percent inhibition of carrageenin induced edema ([2]; dose 100 mg/kg p.o.)	Percent inhibition of carrageenin induced edema ([2]; dose 200 mg/kg p.o.)
Cc1oc(-c2ccccc2)nc1C(N)=O [Example 2, 4-Carbamoyl-5-methyl-2-phenyloxazole]	> 1000 mg/kg	29%	42%	53%
Cc1nc(-c2ccccc2)oc1C(N)=O [Example 1, 5-Carbamoyl-4-methyl-2-phenyloxazole]	> 1000 mg/kg	30%	43%	64%

Reference: patent US4072689A, “Monoamino 2,4,5-trisubstituted oxazoles” (Gruppo Lepetit S.p.A., priority 1975, dated 1978)
